Laboratory results as given in EPA's ToxValDB 9.5 (doi:10.2903/j.efsa.2020.5755).

Tests used:
Daphnia magna = settings: chronic/long-term; duration: 28 days; reproduction
Landoltia sp. = settings: chronic/long-term; duration: 7 days; frond number
Colinus virginianus = settings: reproduction developmental
Rattus norvegicus = settings: for LD50: acute, mortality
Folsomia candida = settings: chronic/long-term; duration: 28 days; reproduction
Canidae = settings: chronic; duration: 1 years; Dog Other
Xenopus laevis = settings: chronic/long-term, development
Tagia sp. = settings: chronic/long-term; growth
Oncorhynchus mykiss = settings: acute; duration: 96 hours; mortality
Typhlodromus pyri = experiment: LR50; higher = less toxic; settings: mortality
Pimephales promelas = settings: chronic/long-term; reproduction
Coturnix japonica = settings: acute; oral; mortality
Apis mellifera = settings: acute, mortality
Anas platyrhynchos = settings: reproductive
Neomysis kadiakensis = settings: chronic/long-term; duration: 39 days; other

`S=C1NCCN1` [4,5-Dihydro-2-mercaptoimidazole] gave an NOEC (Daphnia magna) of 2000 µg/L, an NOEC (Landoltia sp.) of 960000 µg/L and an NOEL (Colinus virginianus) of 1.8 mg/kg-day. It also gave an NOAEL (Rattus norvegicus; chronic) of 2 mg/kg-day, an NOAEL (Rattus norvegicus; developmental, development) of 5 mg/kg-day and an NOAEL (Rattus norvegicus; reproduction developmental) of 0.2 mg/kg-day. The NOEC (Folsomia candida) was 10.6 mg/kg, the NOAEL (Canidae) was 0.2 mg/kg-day and the NOEC (Xenopus laevis; duration: 28 days) was 10000 µg/L. For the same compound, the NOEC (Xenopus laevis; duration: 90 days) was 1000 µg/L and the NOEC (Tagia sp.) was 24 mg/kg.
In the case of `S=C1SSC2=NCCN12` [5,6-Dihydro-3H-imidazo[2,1-c]-1,2,4-dithiazole-3-thione], the LD50 (Rattus norvegicus; oral) is reported as 240 mg/kg-day and the NOEC (Tagia sp.) is reported as 20 mg/kg.
In the case of `O=C1NCCN1` [Ethylene urea], the LD50 (Rattus norvegicus; oral) is reported as > 5000 mg/kg-day, the NOAEL (Rattus norvegicus; reproduction developmental, oral, reproduction) is reported as 37 mg/kg-day and the LC50 (Oncorhynchus mykiss) is reported as > 122 µg/mL.
Compound `S=C([S-])NCCNC(=S)[S-].S=C([S-])NCCNC(=S)[S-].[Mn+2].[Zn+2]` [Mancozeb] has an LR50 (Typhlodromus pyri; chronic/long-term, duration: 14 days) of 107 g/ha, an LR50 (Typhlodromus pyri; not reported) of 26.7 g/ha and an NOEC (Pimephales promelas) of 1.35 µg/L. For the same compound, the LD50 (Coturnix japonica) was > 2000 mg/kg-day, the LD50 (Apis mellifera; dermal) was 162 µg/piece and the LD50 (Apis mellifera; oral, unspecified) was 141 µg/piece. For the same compound, the LD50 (Rattus norvegicus; oral) was > 2000 mg/kg-day, the NOAEL (Rattus norvegicus; chronic) was 2 mg/kg-day and the NOAEL (Rattus norvegicus; subchronic, duration: 90 days, oral, clinical chemistry) was 6.8 mg/kg-day. For the same compound, the LC50 (Oncorhynchus mykiss) was 0.074 µg/mL, the NOEL (Anas platyrhynchos) was 18.6 mg/kg-day and the NOEC (Neomysis kadiakensis) was 1.64 µg/L. For the same compound, the NOEC (Tagia sp.) was 10 mg/kg.
